Experimental data published in a melting point compilation (Tetko et al.; mined from patent text by program, amines drawn as free bases though some values may be those of a salt).

Structure (SMILES) | melting point
Cc1cc(Cl)c2c(c1)C(=O)N(C(C)(C)C)CC(=O)N2 | 151 to 152 °C
CCCN1CC(c2cccc(F)c2)=C(c2ccc(S(N)(=O)=O)cc2)C1=O | 188 to 190 °C
CCCC(Cl)COC(=O)c1ccc(-c2ccc(-c3ccc(C(=O)OCC(Cl)CCC)cc3)cc2)cc1 (stereo unspecified) | 129 to 131 °C
COc1cc2cc(CO)c(CO)c(-c3ccnc(-n4c(=O)cc(C(=O)O)c5ccccc54)c3)c2cc1OC | > 250 °C
Cc1c(F)c(N)cc(Br)c1F | 68 to 68.5 °C
COCCCNC(=O)c1[nH]c(C)c(-c2nc3ccc(C(=O)c4ccccc4)cc3[nH]2)c1C | 256 to 258 °C
COc1ccc2cc(C=CC(C)OC(C)=O)ccc2c1 (stereo unspecified) | 78 to 80 °C
N#CC1CCc2cc(C(=O)O)ccc2C1 (stereo unspecified) | 231 to 236 °C
CC1COC(c2ccccc2)(c2ccc(N)c([N+](=O)[O-])c2)O1 (stereo unspecified) | 155 °C
CCOC(=O)C(=O)Nc1ncc(C)s1 | 166 to 168 °C
COc1cc2nc(N)nc(-c3cc(I)c(O)c(I)c3)c2cc1OC | 259 to 260 °C
CNc1cc(NC)nc(NS(=O)(=O)c2ccc(N)cc2)n1 | 262 to 263 °C
Fc1ccc(Nc2nnc(Cc3ccncc3)c3ccccc23)cc1Cl | 185 to 187 °C
C=CCn1c(NCC#N)nc(N2CCc3ccccc3CC2)c(C#N)c1=O | 198 to 203 °C
CCC(O)c1c(C)c(NC(=O)CC(C)(C)C)c(C)c2c1OCC2c1ccc(C(C)C)cc1 (stereo unspecified) | 165 to 167 °C
O=C(CCCCCN1CCN(c2ccc3c(c2)CCC3)CC1)N1Cc2ccccc2C1 | 131 °C
Cc1nc(Cc2ccc([N+](=O)[O-])cc2)no1 | 66 to 67 °C
CC(=O)NC[C@H]1CN(c2ccc(N3CCN(c4ccc([N+](=O)[O-])o4)CC3)c(F)c2)C(=O)O1 | 191 to 204 °C
COc1cc(C2=CCCCC2)c(Cl)cc1C(=O)N1Cc2cccn2Cc2ccccc21 | 92 to 98 °C
COc1ccc(CNC(=O)c2cccnc2N)cc1 | 165 to 166 °C
COC(=O)c1cc(-c2ccc(=O)n(C(C)C)n2)c(-c2ccccc2)nc1OCC(N)=O | 183 to 184 °C
O=C(F)OC12CC3CC(CC(C3)C1)C2 | 32 to 33 °C

Structure (SMILES) | melting point
CC1(C)CCc2c(N3CCOCC3)nc3sc4c(NCc5ccc(S(N)(=O)=O)cc5)ncnc4c3c2C1 | 258 to 260 °C
CCCn1cc2c(C3C(=O)Nc4ccc(C#N)cc43)nc(NCc3ccncc3)nc2n1 (stereo unspecified) | 299 to 302 °C
CN1C(=O)c2cccc3c(S(C)(=O)=O)ccc1c23 | 216 to 218 °C
CS(=O)(=O)NC(=O)Cc1ccc2c(c1)Nc1nccnc1S2 | 236 to 238 °C
Nc1c(Br)cc(F)cc1[N+](=O)[O-] | 71.5 to 72.5 °C
CC(C)(C)CC(NC(=O)c1ccc(Br)cc1)NC(=NS(=O)(=O)C(F)(F)F)Nc1cccnc1 (stereo unspecified) | 185 to 186 °C
Cc1csc(COc2nn3c(-c4ccccc4)nnc3cc2-c2ccccc2)n1 | 177 °C
CC1(C)COc2ccc(Cl)cc2C(O)(c2ccccn2)C1 (stereo unspecified) | 118 °C
CC12CCC3c4cc(O)c(OCc5ccccc5)cc4CCC3C1CCC2OCc1ccccc1 (stereo unspecified) | 117 to 118 °C
Cc1[nH]c2cc3c(cc2c1-c1ccccc1)C(C)(C)C=N3 | 233 to 235 °C
COc1ccc(C2=NN(CCCCOc3ccc(C4=NNC(=O)CC4C)c(F)c3F)C(=O)C2(C)C)c2cc(C(F)(F)F)sc12 (stereo unspecified) | 137 to 138 °C
CC(C)C(N)=C(C#N)C(N)=S | 112 to 114 °C
COc1ccc2c(c1)C(C)(C)NC2=O | 146 to 147 °C
Nc1ccc2c(c1)C=C(C(=O)O)C(C(F)(F)F)O2 (stereo unspecified) | 126 to 133 °C
Cc1cc(C)cc(-c2[nH]c3ccc(-c4nccs4)cc3c2CCN)c1 | 98.5 to 100 °C
CC1(C)C2CC[C@@]1(C)C(=O)C(C(=O)Nc1ccc(F)c(C(F)(F)F)c1)C2=O (stereo partly specified) | 96 to 98 °C
Cc1n[nH]c(=O)n1N=Cc1cccnc1 | 208 to 210 °C
C[C@@H](n1cnc2cc(C(F)(F)F)ccc2c1=O)[C@](O)(Cn1cncn1)c1ccc(F)cc1F | 142 to 143 °C
COC(=O)Nc1nc2cc(F)c(OC(C)c3c(Cl)cccc3Cl)cc2[nH]1 (stereo unspecified) | 240 to 245 °C
NS(=O)(=O)c1cccc(-c2noc(-c3cnn4c(C(F)F)cc(-c5ccc(Cl)cc5)nc34)n2)c1 | 231 °C
NS(=O)(=O)OCCCOc1ccc(-n2ccnc2)cc1 | 105 to 106 °C
CCc1cc2c(cc1Sc1ccc(C(=O)O)cc1)C(C)(C)CCC2(C)C | 82 to 83 °C

Continued, values first:

melting point | Structure (SMILES)
221 to 222 °C | CCn1cc(C(=O)O)c(=O)c2ccc(Cl)c(C)c21
188 to 189 °C | CCCCn1c(=O)c(NC(=O)Nc2c(C(C)C)cccc2C(C)C)c(-c2cccc(CCCO)c2)c2cccnc21
160 to 161 °C | CCCn1nc2c(N)nc3ccccc3c2c1NCc1ccccc1
118 to 120 °C | COC(=O)C(Oc1ccc(C(C)(C)C)cc1)c1ccc(Oc2ccc(Cl)cc2)cc1 (stereo unspecified)
135 to 138 °C | CSCCNC(=O)c1cccc(-c2cccc3cc(Cc4cccc(C(F)(F)F)c4)oc23)c1
142 to 143 °C | CC(=O)Oc1cc([N+](=O)[O-])cc2c1OC(C)(C)C2
115 °C | COc1ccc(C2C(C(=O)O)C2(C)C)cc1 (stereo unspecified)
151 to 152 °C | CCS(=O)c1ccc(-c2coc3ccc(-c4nnc(C)o4)cc23)c(Cl)c1 (stereo unspecified)
182 to 183 °C | Fc1ccc(-c2ncn(C3CCNCC3)c2-c2ccnc(Oc3ccccc3)n2)cc1
112 to 118 °C | CC(C)(C)C(=O)NC#N
136 to 138 °C | CCC(=O)C1=C(O)CC(c2cccc(Oc3ccc(S(C)(=O)=O)cc3)c2)CC1=O (stereo unspecified)
180 to 181 °C | CC(C(N)=O)c1ccc2c(c1Cl)C(=O)Cc1ccccc1S2 (stereo unspecified)
251 °C | CC(C)(F)Cn1c(N)nc2c(N)nc3ccccc3c21
186 to 188 °C | CN(CCOc1ccc(OC(F)(F)F)cc1)C1CCN(c2ccc(OC[C@@]3(C)Cn4cc([N+](=O)[O-])nc4O3)cc2)CC1
150 to 153 °C | COC(=O)CCn1c(=O)[nH][nH]c1=O
67.5 to 72 °C | CCCCCCCCCCn1c(C)cc(C)c(C(=O)O)c1=O
84 to 87 °C | CC(=O)OCC(C)(C)C(OC(C)=O)C(Oc1ccc(Cl)cc1)n1cncn1 (stereo unspecified)
> 300 °C | O=C(O)c1cn(C2CC2)c2nc(N3Cc4cccc(CO)c4C3)c(F)cc2c1=O
108 to 110 °C | Cn1c(CCNC(=O)C(F)(F)F)cc2cccc(F)c21
147 °C | COc1ccc(C)c(NC(=O)CC23CC4CC(CC(C4)C2)C3)c1
136 to 139 °C | COC(=O)CCCC(C)(C)c1cc(O)c(C(C)(C)C)cc1O
207 to 209 °C | COc1ccnc(CCc2nc3cc(Br)cnc3[nH]2)c1
107 °C | CCc1ccc(Oc2ccc(N3CCN(c4cccc(C)c4)CC3)nn2)cc1
185 to 186 °C | O=C1NCCc2ccc(OCCCCN3CCN(c4cccc5c4CCCC5)CC3)nc2N1
133 to 135 °C | C#CCn1c(-c2ccc(Cl)nc2Cl)nc(OS(=O)(=O)C(F)(F)F)c(OC)c1=O
174 to 175 °C | CCOC(=O)c1cnc2cn[nH]c2c1Nc1ccsc1
211 to 212 °C | O=C(Nc1c(C(O)(C(F)(F)F)C(F)(F)F)ccc2ccccc12)c1cccc([N+](=O)[O-])c1
